From publication PMC8725971, “Polycyclic nitrogen heterocycles as potential thymidine phosphorylase inhibitors: synthesis, biological evaluation, and molecular docking study” (Journal of Enzyme Inhibition and Medicinal Chemistry, 2021)
pIC50: −log10 of the molar value. Values after ≈ are worked out from the molar mass of the structure shown. Structures can show the parent of a compound that is named as a salt.

What was measured:
E. coli TP = target: T1, E. coli TP (Escherichia coli, UniProt P07650); experiment: In vitro E. coli thymidine phosphorylase inhibition, spectrophotometric assay at 290 nm; format: biochemical; conditions: for inhibition at 15 µM: compound at 15 µM (maximum solubility); for inhibition at 25 µM: compound at 25 µM (maximum solubility); for inhibition at 30 µM: read-out: TP inhibition (%) at maximum solubility (30 µM)
T1 construct: purchased Sigma Aldrich T2807-1KU
Experimental: The adopted protocol is a modification of the original method developed by Khan[51]. TP activity and inhibition assays were based on the phosphorolysis of thymidine to thymine, this conversion results in a significant spectrophotometric decrease. At 290 nm and pH 7.4, thymidine has a higher extinction coefficient than thymine (Δε = −480 M^−1 cm^−1). The absorbance at 290 nm was measured every 2 min for 30 min in 96-well plates at 25 °C.
Thymidine was dissolved in buffer (3 mM). […] All experiments were conducted in triplicate.
The method reported by Khan et al.[51] has been adapted to a screening in 96-well plates (200 µL well, UV-Star® 96-well microplate, Greiner). Each well contained 160 µL of 50 mM KH2PO4 buffer (pH 7.4), 0.006 U of E. coli TP (T2807-1KU, Sigma Aldrich), and 20 µL of the tested compound solution. […] The decrease in absorbance due to conversion of thymidine to thymine was followed during 30 min (PowerWave HT Microplate Reader, Biotek) at 25 °C, with one measure every 2 min and a 30 s shaking before each measure.

[1] = Solubility in the incubation medium; conditions: for solubility: aqueous buffer, kinetic from dmso stock; for Solubility (in words): incubation medium
[2] = compound at 50 µM, 2.5% DMSO, average of three measurements

T1 sequence (P07650 whole entry): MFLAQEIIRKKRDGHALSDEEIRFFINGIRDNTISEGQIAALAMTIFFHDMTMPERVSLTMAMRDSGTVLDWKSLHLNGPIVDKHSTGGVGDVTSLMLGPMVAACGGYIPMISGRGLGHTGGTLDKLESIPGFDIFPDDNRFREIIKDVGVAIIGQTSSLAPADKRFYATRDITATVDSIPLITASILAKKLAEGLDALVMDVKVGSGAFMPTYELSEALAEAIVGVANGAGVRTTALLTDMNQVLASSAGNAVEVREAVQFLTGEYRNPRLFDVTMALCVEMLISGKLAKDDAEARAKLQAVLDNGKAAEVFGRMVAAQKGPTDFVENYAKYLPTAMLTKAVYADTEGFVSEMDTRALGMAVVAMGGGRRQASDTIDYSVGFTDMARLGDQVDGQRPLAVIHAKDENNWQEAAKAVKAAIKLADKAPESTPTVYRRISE

| Compound | melting point | inhibition at 50 µM (E. coli TP; [2]) | solubility [1] | also measured |
| --- | --- | --- | --- | --- |
| 2-[4-(2,4-Dioxo-5-methyl-3,4-dihydropyrimidine-1(2H)-yl)hexyl]-6,7-methylenedioxy-2H-pyrrolo[3,4-b]quinoline-1,3-dione [Compound 13b] |  |  |  | TP inhibition (%) at 50 µM (E. coli TP; [2]): 0% at 50 µM |
| CN(C)CCCN1C(=O)c2cc3c(=O)[nH]c(=O)[nH]c3nc2C1=O (as salt: hydrochloride) [Compound 28h, 7-(3-(Dimethylamino)propyl)-1H-pyrrolo[3′,4′:5,6]pyrido [2,3-d]pyrimidine-2,4,6,8 (3H,7H)-tetraone, hydrochloride] | 309 to 311 °C |  |  |  |
| Cc1ccc2nc3[nH]c(=O)[nH]c(=O)c3cc2c1 [Compound 2a] |  | 0% |  |  |
| Cc1ccc2cc3c(=O)[nH]c(=O)[nH]c3nc2c1 [Compound 2b] |  | 0% |  |  |
| Cc1cccc2cc3c(=O)[nH]c(=O)[nH]c3nc12 [Compound 2c] |  | 14% |  |  |
| O=c1[nH]c(=O)c2cc3ccc(Oc4ccccc4)cc3nc2[nH]1 [Compound 2e, 8-Phenoxypyrimido[4,5-b]quinoline-2,4(1H,3H)-dione] | 334 to 336 °C (dec.) | 30% | 50 µM (≈ 15.3 µg/mL) |  |
| O=c1[nH]c(=O)c2cc3ccc(OCc4ccccc4)cc3nc2[nH]1 [Compound 2f] |  | 0% | 50 µM (≈ 16 µg/mL) |  |
| COc1cc2nc3[nH]c(=O)[nH]c(=O)c3cc2c(OC)c1OC [Compound 2h] |  |  | 15 µM (≈ 4.55 µg/mL) | inhibition at 15 µM (E. coli TP; 2.5% DMSO): 0%; Solubility (in words) [1]: sparingly soluble |
| O=c1[nH]c(=O)c2cc3ccc(Cc4ccccc4)cc3nc2[nH]1 [Compound 2i, 8-Benzylpyrimido[4,5-b]quinoline-2,4(1H,3H)-dione] | 297 to 299 °C (dec.) | 30% | 50 µM (≈ 15.2 µg/mL) |  |
| O=c1[nH]c(=O)c2cc3ccc(Cl)cc3nc2[nH]1 [Compound 2j] |  | 0% | 50 µM (≈ 12.4 µg/mL) |  |
| O=c1[nH]c(=O)c2cc3ccc(C(F)(F)F)cc3nc2[nH]1 [Compound 2k] |  | 0% |  |  |
| O=c1[nH]c(=O)c2cc3cc(Cl)c(Cl)cc3nc2[nH]1 [Compound 2l, 7,8-Dichloropyrimido[4,5-b]quinoline-2,4(1H,3H)-dione] | > 360 °C | 71% | > 50 µM | pIC50 (E. coli TP; 300 µM thymidine, pH 7.4, 25 °C): 4.38 |
| O=c1[nH]c(=O)c2cc3c(ccc4ccccc43)nc2[nH]1 [Compound 2m] |  | 29% |  |  |
| O=c1[nH]c(=O)c2cc3ccc4ccccc4c3nc2[nH]1 [Compound 2n, Benzo[h]pyrimido[4,5-b]quinoline-8,10(9H,11H)-dione)] | 326 to 328 °C |  | 15 µM (≈ 3.95 µg/mL) | inhibition at 15 µM (E. coli TP; 2.5% DMSO): 0%; Solubility (in words) [1]: less soluble |
| O=c1[nH]c(=O)c2cc3ccc4cc5ccccc5cc4c3nc2[nH]1 [Compound 2o, Naphto[2,3-h]pyrimido[4,5-b]quinoline-2,4(1H,3H)-dione] | > 360 °C |  | 25 µM (≈ 7.83 µg/mL) | inhibition at 25 µM (E. coli TP; 2.5% DMSO): 0%; Solubility (in words) [1]: less soluble |
| Cc1c2cc3c(cc2nc2[nH]c(=O)[nH]c(=O)c12)OCO3 [Compound 2q] |  | 0% |  |  |
| COc1cc(-c2c3cc4c(cc3nc3[nH]c(=O)[nH]c(=O)c23)OCO4)cc(OC)c1OC [Compound 2r] |  |  | 25 µM (≈ 10.6 µg/mL) | inhibition at 25 µM (E. coli TP; 2.5% DMSO): 0% |

| Compound | melting point | inhibition at 50 µM (E. coli TP; [2]) | solubility [1] | also measured |
| --- | --- | --- | --- | --- |
| CN(C)c1c2cc3c(cc2nc2[nH]c(=O)[nH]c(=O)c12)OCO3 [Compound 2s, 5-Dimethylamino-7,8-methylenedioxypyrimido[4,5-b]quinoline-2,4(1H,3H)-dione] | 348 °C |  | 15 µM (≈ 4.5 µg/mL) | inhibition at 15 µM (E. coli TP; 2.5% DMSO): 0% |
| O=c1[nH]c(=O)c2cc[nH]c2[nH]1 [Compound 7-DX, 7-Deazaxanthine, reference compound] |  | 60% |  |  |
| Cc1cn(CCCCN2C(=O)c3cc4cc5c(cc4nc3C2=O)OCO5)c(=O)[nH]c1=O [Compound 13a, 2-[4-(2,4-Dioxo-5-methyl-3,4-dihydropyrimidine-1(2H)-yl)butyl]-6,7-methylenedioxy-2H-pyrrolo[3,4-b]quinoline-1,3-dione] | 302 °C | 25% |  |  |
| O=C1c2cc3cc4c(cc3nc2C(=O)N1CCCCn1cc(Br)c(=O)[nH]c1=O)OCO4 [Compound 16a, 2-[4-(5-Bromo-2,4-dioxo-3,4-dihydropyrimidine-1(2H)-yl)butyl]-6,7-methylenedioxy-2H-pyrrolo[3,4-b]quinoline-1,3-dione] | 276 °C |  | 25 µM (≈ 12.2 µg/mL) | inhibition at 25 µM (E. coli TP; 2.5% DMSO): 30%; Solubility (in words) [1]: less soluble |
| O=C1c2cc3cc4c(cc3nc2C(=O)N1CCCCCCn1cc(Br)c(=O)[nH]c1=O)OCO4 [Compound 16b, 2-[6-(5-Bromo-2,4-dioxo-3,4-dihydropyrimidine-1(2H)-yl)hexyl]-6,7-methylenedioxy-2H-pyrrolo[3,4-b]quinoline-1,3-dione] | 282 to 283 °C |  | 12.5 µM (≈ 6.44 µg/mL) | inhibition at 12.5 µM (E. coli TP; compound at 12.5 µM (maximum solubility), 2.5% DMSO): 30%; Solubility (in words) [1]: less soluble |
| CCC(CCCn1c(=O)c(Br)cn(C(CC)CCCN2C(=O)c3cc4cc5c(cc4nc3C2=O)OCO5)c1=O)n1cc(Br)c(=O)[nH]c1=O (centres unmarked) [Compound 17, 2-[4-[5-Bromo-3-[4-(5-bromo-2,4-dioxo-3,4-dihydropyrimidine-1(2H)-yl)hexyl]-2,4-dioxo-3,4-dihydropyrimidine-1(2H)-yl]hexyl]-6,7-méthylènedioxy-2H-pyrrolo[3,4-b]quinoline-1,3-dione] | 144 to 148 °C |  |  |  |
| O=C1c2cc3cc4c(cc3nc2C(=O)N1Cc1cc(=O)[nH]c(=O)[nH]1)OCO4 [Compound 22, 2-[(2,6-Dioxo-1,2,3,6-tetrahydropyrimidin-4-yl)methyl]-6,7-methylenedioxy-1H-pyrrolo[3,4-b]quinoline-1,3(2H)-dione] | 407 to 409 °C (dec.) |  | 15 µM (≈ 5.49 µg/mL) | inhibition at 15 µM (E. coli TP; 2.5% DMSO): 25%; Solubility (in words) [1]: less soluble |
| O=C1c2cc3cc4c(cc3nc2C(=O)N1Cc1[nH]c(=O)[nH]c(=O)c1Cl)OCO4 [Compound 23a, 2-[(5-Chloro-2,6-dioxo-1,2,3,6-tetrahydropyrimidin-4-yl)methyl]-6,7-methylenedioxy-1H-pyrrolo[3,4-b]quinoline-1,3(2H)-dione] | 352 to 354 °C (dec.) | 0% |  |  |
| O=C1c2cc3cc4c(cc3nc2C(=O)N1Cc1[nH]c(=O)[nH]c(=O)c1I)OCO4 [Compound 23c, 2-[(5-Iodo-2,6-dioxo-1,2,3,6-tetrahydropyrimidin-4-yl)methyl]-6,7-methylenedioxy-1H-pyrrolo[3,4-b]quinoline-1,3(2H)-dione] | 365 to 367 °C (dec.) | 0% |  |  |
| O=C1c2cc3cc4c(cc3nc2C(=O)N1Cc1ccccc1)OCO4 [Compound 24, 6,7-Methylenedioxy-2-benzylpyrrolo[3,4-b]quinoline-1,3-dione] | 191 to 193 °C | 20% |  |  |
| O=C1NC(=O)c2nc3[nH]c(=O)[nH]c(=O)c3cc21 [Compound 27] |  | 0% |  |  |
| COc1ccc(CN2C(=O)c3cc4c(=O)[nH]c(=O)[nH]c4nc3C2=O)c(OC)c1 [Compound 28b] |  | 0% |  |  |
| O=C1c2cc3c(=O)[nH]c(=O)[nH]c3nc2C(=O)N1Cc1ccc(Cl)cc1Cl [Compound 28d] |  |  | 30 µM (≈ 11.7 µg/mL) | inhibition at 30 µM (E. coli TP): 0% |
| O=C1c2cc3c(=O)[nH]c(=O)[nH]c3nc2C(=O)N1CCc1ccccc1 [Compound 28e, 7-Phenylethyl-1H-pyrrolo[3′,4′:5,6]pyrido[2,3-d]pyrimidine-2,4,6,8(3H,7H)-tetraone] | 359 to 361 °C | 0% |  |  |
| O=C1c2cc3c(=O)[nH]c(=O)[nH]c3nc2C(=O)N1Cc1cccnc1 [Compound 28f, 7-(Pyridin-3-ylmethyl)-1H-pyrrolo[3′,4′:5,6]pyrido[2,3-d]pyrimidine-2,4,6,8(3H,7H)-tetraone] | > 360 °C | 0% |  |  |
| O=C1c2cc3c(=O)[nH]c(=O)[nH]c3nc2C(=O)N1CC1CCCCC1 [Compound 28g] |  |  | 30 µM (≈ 9.85 µg/mL) | inhibition at 30 µM (E. coli TP): 0% |
| CN(C)CCCN1C(=O)c2cc3c(=O)[nH]c(=O)[nH]c3nc2C1=O [Compound 28h, 7-(3-(Dimethylamino)propyl)-1H-pyrrolo[3′,4′:5,6]pyrido [2,3-d]pyrimidine-2,4,6,8 (3H,7H)-tetraone, hydrochloride] |  | 0% |  |  |
